Results: EP0437846A2, “Solutions of decaplanin salts, their preparation and their use, as well as crystalline decaplanin salts, their preparation and their use” (HOECHST AKTIENGESELLSCHAFT, priority 1990, dated 1991)
Structures can show the parent of a compound that is named as a salt. Where two headings read alike, the source gives them in different places.

Tests used:
[1] = solubility in water; details: result in words
[2] = toxicity and tolerability on injection; details: result in words; for Verträglichkeit: injection
[3] = viscosity / gelling of aqueous salt solutions; format: physicochemical; details: result in words
Procedure: 10,2 g des nach Beispiel 3 gewonnenen Gefriertrocknungsproduktes werden in 90 ml Wasser gelöst. Sie ergeben 100 ml einer Flüssigkeit mit einer Viskosität von weniger als 3 Centipoise (cP) bei 20 °C.
10 g des nach Beispiel 3 gewonnenen Produktes werden in 40 ml Wasser aufgenommen und durch Zugabe von […] Eisessig eine Decaplanindiacetatlösung hergestellt. Die Lösung hat einen pH-Wert von 4,2. Ihre Viskosität beträgt weniger als 3 cP bei 20 °C.

[4] = commercial hydrochloride form, result in words; cited from earlier work
[5] = thermal stability of aqueous solution (80 °C, 20 h); format: physicochemical
Excerpt: Erfindungsgegenstand ist demzufolge eine wäßrige Lösung eines Decaplaninsalzes, ausgewählt aus der Gruppe der Decaplaninacetate, Decaplaninphosphate und Decaplanintartrate. Aus dieser Gruppe sind die Decaplaninacetate besonders bevorzugt. Die erfindungsgemäßen wässrigen Lösungen haben wie bereits erläutert den Vorteil, daß in ihnen das jeweilige Salz in relativ hoher Konzentration vorliegen kann, ohne daß das betreffende Salz ausfällt. […] So zeigt sich z.B. in einer 0,2 %igen wäßrigen Decaplaninmonoacetatlösung bei einer 20 stündigen Temperaturbelastung von 80 °C nur ein Wirkstoffverlust von weniger als 5 %; Vancomycinhydrochlorid hingegen weist bei einer analogen Behandlung nur noch einen Gehalt von etwa 25 % Vancomycinhydrochlorid auf. Die Instabilität des Vancomycins resultiert aus seiner Umwandlung zum sogenannten CDP (vgl. F. Sztaricskai und R. Bognar, Chemistry of the Vancomycin Group of Antibiotics. In:Recent Developments in the Chemistry of Natural Carbon Compounds, Vol. 10, PP 93-201, 1984, Akademiai Kiado, Budapest, 1983). Es ist besonders überraschend, daß die erfindungsgemäßen Decaplaninsalze diese Umwandlung nicht in diesem Ausmaß erleiden. Weiterhin besonders überraschend ist die bereits erwähnte, im Gegensatz zum Vancomycinhydrochlorid stehende gute lokale Verträglichkeit der erfindungsgemäßen wäßrigen Decaplaninsalzlösungen, die ohne besondere Vorsichtsmaßnahmen - wie langsame Injektion - injiziert werden können und auch subcutan verabreichbar sind.

[6] = general knowledge on the commercial form, cited from earlier work
[7] = in vivo
[8] = water
[9] = isoelectric point; format: physicochemical

With Decaplanintartrate the “Löslichkeit in Wasser” value [1] was “gutes Löslichkeitsverhalten”, the Verträglichkeit [2] was “gute Verträglichkeit” and the Toxizität [2] was “sehr geringe Toxizität”.

With Hydrochlorid the “Löslichkeit in Wasser” value [1] was “nicht ausreichend löslich” and the “Gelieren / Viskosität der wäßrigen Lösung” value [3] was “zähflüssig”.

For `CN[C@H](CC(C)C)C(=O)N[C@H]1C(=O)N[C@@H](CC(N)=O)C(=O)N[C@H]2C(=O)N[C@H]3C(=O)N[C@H](C(=O)N[C@H](C(=O)O)c4cc(O)cc(O)c4-c4cc3ccc4O)[C@H](O)c3ccc(c(Cl)c3)Oc3cc2cc(c3O[C@@H]2O[C@H](CO)[C@@H](O)[C@H](O)[C@H]2O[C@H]2C[C@](C)(N)[C@H](O)[C@H](C)O2)Oc2ccc(cc2Cl)[C@H]1O` [Vancomycinhydrochlorid], the Löslichkeit [4] is listed as “relativ wenig löslichen Form”, the remaining at 20 h ([5]; water, remaining content after analogous treatment (20 h, 80 °C), read-out: Gehalt) is listed as about 25% and the Nebenwirkungen [6] is listed as “lokale Nekrosen, das "red man-Syndrom" sowie Oto- und Nephrotoxizität”. The Verträglichkeit ([6]; injection) was “schlecht verträglich”.

For Decaplaninacetat, the Toxizität [7] was “sehr geringe Toxizität”, the “Stabilität der Lösung” value [5] was “stabil” and the “Löslichkeit (Konzentration)” value [8] was “ca. 20 Gew.-%”. For the same compound, the “Gelieren / Viskosität der wäßrigen Lösung” value [3] was “dünnflüssig”.

Decaplaninmonoacetat gave a Wirkstoffverlust ([5]; water, 20 h) of under 5%.

For Decaplanin, the “Löslichkeit in Wasser” value [1] was “relativ wenig wasserlöslich”, the Verträglichkeit [2] was “gute Verträglichkeit” and the Toxizität [2] was “sehr geringe Toxizität”. The “isoelektrischer Punkt” value [9] was 8,1 pH.

In the case of Decaplaninphosphate, the Verträglichkeit [7] is reported as “gute Verträglichkeit” and the Toxizität [2] is reported as “sehr geringe Toxizität”.
